The values that follow come from ChEMBL document CHEMBL4196115 (ACS Med Chem Lett, 2018).

Active and inactive are the calls of the source. The rule behind the calls is not given here.

The subject of one assay is Mus musculus. Description: Antialzheimer activity in mouse assessed as plasma concentration required for reversal of scopolamine-induced emotional memory deficits by measuring increase in freezing at 3 mg/kg, ip measured after 24 hrs by contextual fear conditioning assay. It counts as functional, organism-based.
In assay [1] the target is Muscarinic acetylcholine receptor M3 (Homo sapiens) (UniProt P20309). Kind of assay: Agonist activity at human muscarinic acetylcholine receptor M3 expressed in CHO cells. The assay is classed as functional, cell-based.
For assay [2], the target named is T1, Muscarinic acetylcholine receptor M4 (Homo sapiens) (UniProt P08173).
T1 sequence (whole entry): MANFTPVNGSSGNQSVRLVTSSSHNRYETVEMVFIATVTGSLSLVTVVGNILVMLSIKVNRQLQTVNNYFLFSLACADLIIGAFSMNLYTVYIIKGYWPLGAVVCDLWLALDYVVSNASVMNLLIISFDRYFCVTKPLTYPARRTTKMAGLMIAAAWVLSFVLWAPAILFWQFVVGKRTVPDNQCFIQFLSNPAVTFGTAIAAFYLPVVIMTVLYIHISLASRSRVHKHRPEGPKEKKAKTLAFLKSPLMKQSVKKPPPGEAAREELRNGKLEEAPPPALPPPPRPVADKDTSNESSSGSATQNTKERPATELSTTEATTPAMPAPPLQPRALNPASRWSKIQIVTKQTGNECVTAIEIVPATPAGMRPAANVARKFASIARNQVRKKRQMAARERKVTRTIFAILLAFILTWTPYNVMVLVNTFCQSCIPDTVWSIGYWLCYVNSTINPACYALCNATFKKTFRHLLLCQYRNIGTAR
Kind of assay: Positive allosteric modulation of human muscarinic acetylcholine receptor M4 expressed in CHO cells. The assay is classed as functional, cell-based.

Assay [3] has as its target T1, Muscarinic acetylcholine receptor M4 (Homo sapiens). Kind of assay: Agonist activity at human muscarinic acetylcholine receptor M4 expressed in CHO cells. It counts as functional, cell-based.
Assay [4] concerns the target T2, Muscarinic acetylcholine receptor M5 (Homo sapiens) (UniProt P08912).
T2 sequence (whole entry): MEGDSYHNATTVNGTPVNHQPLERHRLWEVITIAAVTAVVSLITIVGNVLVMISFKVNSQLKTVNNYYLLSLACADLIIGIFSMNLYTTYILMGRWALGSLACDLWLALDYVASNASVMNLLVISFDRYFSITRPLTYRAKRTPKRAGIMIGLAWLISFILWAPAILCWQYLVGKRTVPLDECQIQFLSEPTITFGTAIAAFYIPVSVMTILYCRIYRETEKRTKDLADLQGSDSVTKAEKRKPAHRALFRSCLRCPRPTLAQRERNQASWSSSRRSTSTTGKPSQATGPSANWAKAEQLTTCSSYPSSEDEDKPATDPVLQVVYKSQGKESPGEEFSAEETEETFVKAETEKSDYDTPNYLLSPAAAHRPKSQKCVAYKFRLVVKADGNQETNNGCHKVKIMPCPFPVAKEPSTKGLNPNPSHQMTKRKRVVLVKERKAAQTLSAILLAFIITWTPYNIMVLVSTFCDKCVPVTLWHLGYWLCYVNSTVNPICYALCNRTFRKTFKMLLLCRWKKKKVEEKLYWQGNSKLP
Kind of assay: Agonist activity at human muscarinic acetylcholine receptor M5 expressed in CHO cells. It counts as functional, cell-based.

The target of assay [5] is T3, Muscarinic acetylcholine receptor M1 (Rattus norvegicus) (UniProt P08482).
T3 sequence (whole entry): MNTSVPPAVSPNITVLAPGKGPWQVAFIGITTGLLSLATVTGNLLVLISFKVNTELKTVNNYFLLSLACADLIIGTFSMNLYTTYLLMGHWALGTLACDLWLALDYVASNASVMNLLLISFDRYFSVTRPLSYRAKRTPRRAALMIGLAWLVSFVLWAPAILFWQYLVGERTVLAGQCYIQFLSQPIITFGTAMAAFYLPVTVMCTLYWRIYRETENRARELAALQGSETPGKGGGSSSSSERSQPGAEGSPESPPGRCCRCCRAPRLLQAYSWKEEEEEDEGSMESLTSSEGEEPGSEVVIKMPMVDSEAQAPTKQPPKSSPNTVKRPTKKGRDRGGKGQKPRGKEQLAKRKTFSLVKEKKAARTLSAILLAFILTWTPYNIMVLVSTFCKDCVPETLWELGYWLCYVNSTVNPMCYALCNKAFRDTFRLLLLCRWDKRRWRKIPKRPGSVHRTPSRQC
Particulars: CHO.
Description: Positive allosteric modulation of rat muscarinic acetylcholine receptor M1 expressed in CHO cells assessed as increase in acetylcholine-induced calcium mobilization pretreated for 4 mins followed by acetylcholine addition and measured after 4 mins by Fluo-4-AM dye based FLIPR assay

Assay [6] has as its target T4, Muscarinic acetylcholine receptor M2 (Homo sapiens) (UniProt P08172).
T4 sequence (whole entry): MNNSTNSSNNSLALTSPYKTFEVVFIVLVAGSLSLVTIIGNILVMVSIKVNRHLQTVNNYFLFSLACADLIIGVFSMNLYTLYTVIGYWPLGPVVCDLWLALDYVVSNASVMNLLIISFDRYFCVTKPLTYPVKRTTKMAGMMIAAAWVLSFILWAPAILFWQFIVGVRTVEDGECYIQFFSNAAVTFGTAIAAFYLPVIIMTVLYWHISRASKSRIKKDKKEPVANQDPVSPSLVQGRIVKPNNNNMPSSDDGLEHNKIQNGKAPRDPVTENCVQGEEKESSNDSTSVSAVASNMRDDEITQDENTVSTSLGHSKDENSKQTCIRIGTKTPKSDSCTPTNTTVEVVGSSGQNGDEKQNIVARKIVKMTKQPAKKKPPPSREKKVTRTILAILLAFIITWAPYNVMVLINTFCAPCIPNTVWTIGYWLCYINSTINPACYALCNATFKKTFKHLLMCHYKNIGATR
Kind of assay: Agonist activity at human muscarinic acetylcholine receptor M2 expressed in CHO cells. The assay is classed as functional, cell-based.

The target of assay [7] is T5, Muscarinic acetylcholine receptor (Canis lupus familiaris) (UniProt A0A8C0MJA7).
T5 sequence (whole entry): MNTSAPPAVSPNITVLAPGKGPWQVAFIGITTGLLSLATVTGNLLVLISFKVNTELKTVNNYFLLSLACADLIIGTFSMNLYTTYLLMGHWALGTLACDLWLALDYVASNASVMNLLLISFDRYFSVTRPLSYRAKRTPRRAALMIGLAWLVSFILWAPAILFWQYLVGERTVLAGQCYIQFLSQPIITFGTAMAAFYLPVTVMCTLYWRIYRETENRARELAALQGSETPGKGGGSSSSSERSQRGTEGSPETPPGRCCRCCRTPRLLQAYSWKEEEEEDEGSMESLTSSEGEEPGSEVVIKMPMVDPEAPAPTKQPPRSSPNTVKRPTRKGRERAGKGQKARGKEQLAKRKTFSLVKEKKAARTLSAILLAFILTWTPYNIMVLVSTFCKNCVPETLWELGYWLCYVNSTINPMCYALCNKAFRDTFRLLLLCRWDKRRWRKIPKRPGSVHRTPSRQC
The following applies: CHO.
Description: Positive allosteric modulation of dog muscarinic acetylcholine receptor M1 expressed in CHO cells assessed as increase in acetylcholine-induced calcium mobilization pretreated for 4 mins followed by acetylcholine addition and measured after 4 mins by Fluo-4-AM dye based FLIPR assay

Sequence of Muscarinic acetylcholine receptor M3 (Homo sapiens) (P20309 whole entry, looked up): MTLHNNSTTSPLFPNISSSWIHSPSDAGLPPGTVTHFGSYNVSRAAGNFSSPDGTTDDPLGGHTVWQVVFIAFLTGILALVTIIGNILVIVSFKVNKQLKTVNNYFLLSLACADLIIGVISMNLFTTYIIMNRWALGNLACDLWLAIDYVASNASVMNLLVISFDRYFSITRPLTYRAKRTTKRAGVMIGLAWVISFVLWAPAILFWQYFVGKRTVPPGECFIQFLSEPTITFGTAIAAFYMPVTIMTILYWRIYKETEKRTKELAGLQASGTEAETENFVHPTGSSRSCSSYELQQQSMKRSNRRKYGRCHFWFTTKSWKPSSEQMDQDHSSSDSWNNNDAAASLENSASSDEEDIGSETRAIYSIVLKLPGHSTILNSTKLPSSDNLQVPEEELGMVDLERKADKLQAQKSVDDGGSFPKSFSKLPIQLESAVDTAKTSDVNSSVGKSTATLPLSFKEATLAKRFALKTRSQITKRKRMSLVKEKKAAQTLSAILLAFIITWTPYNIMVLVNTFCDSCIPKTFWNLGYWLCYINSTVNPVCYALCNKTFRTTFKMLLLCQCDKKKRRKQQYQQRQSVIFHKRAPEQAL

Consider `Cc1ccc(Cc2cc3c(=O)n([C@H]4CCCC[C@@H]4O)cnc3c3ccccc23)cn1`, for which the Cp in the assay on Mus musculus stood at 2.4 µM. Moreover, the result in assay [1], in assay [2], in assay [3], in assay [4] and in assay [6] was inactive. Also, the IP in assay [5] stood at 14 nM; in assay [7], 1.4 nM.
